Like-named read-outs stand apart in the source and are kept apart here.
Columns and labels:
[1] = tested on: N. fowleri strain KUL trophozoites; assay: Parasite assay, CellTiter-Glo EC50 dose response, N. fowleri trophozoites; assay type: cell-based, Naegleria fowleri
Experimental: (§1) Trophozoites of E. histolytica HM1: IMSS and G. lamblia WB strains were axenically maintained in TYI-S-33 medium supplemented with penicillin (100 U/ml), streptomycin (100 μg/ml). Trophozoites of N. fowleri strain KUL were axenically cultured in Nelson’s medium supplemented with 10% FBS at 37°C [45]. All experiments were performed using trophozoites harvested during the logarithmic phase of growth. Four solvent partitioned fractions of an aqueous methanolic extract of L. tridentata and compounds 1–9 were screened for activity against E. histolytica, G. lamblia, and N. fowleri. For primary screening, the positive control for E. histolytica and G. lamblia was 5 μg/mL of metronidazole (Sigma-Aldrich) and 46 μg/mL of amphotericin B for N. fowleri (Sigma-Aldrich). Test samples were diluted to 10 mg/mL of extracts, HPLC fractions, and pure compounds in DMSO. Finally, 0.5 μL of diluted sample was transferred to white, solid bottom tissue culture 96-well plates (E&K Scientific) followed by addition of 99.5 μL trophozoites (5,000 E. histolytica and G. lamblia, and 10,000 N. fowleri) in TYI-S-33 medium or Nelson’s medium. The final concentration for test compounds was 50 μg/mL and 0.5% DMSO, which was the negative control and compound vehicle that we have shown has no effect the growth rate of trophozoites. Assay plates were incubated for 48 h at 37°C. E. histolytica and G. lamblia plates were kept in the GasPak EZ Anaerobe Gas Generating Pouch System (VWR) to maintain anaerobic condition throughout the incubation period. Screening was performed in duplicate using the CellTiter-Glo assay (Promega) and luminescence was measured using an EnVision plate reader (PerkinElmer).
(§2) The antiparasitic activity of 1–6 and 9 were confirmed by EC50 dose response experiments, using the CellTiter-Glo assay, conducted in triplicate over a concentration range from 5-to-700 μM against trophozoites (Table 3). Miltefosine and metronidazole, current drugs for the treatment of PAM and amebiasis and giardiasis were also tested in triplicate as positive controls for EC50 determination (Table 3). Dose response curves including standard deviation (SD) calculation were processed using GraphPad Prism software 5.0. Percent inhibition relative to maximum and minimum reference signal controls was calculated using the formula: % Inhibition = [(mean of Maximum Signal Reference Control—Experimental Value)/(mean of Maximum Signal Reference Control—mean of Minimum Signal Reference Control)] × 100.

[2] = tested on: E. histolytica HM1: IMSS trophozoites; assay: Parasite assay, CellTiter-Glo EC50 dose response, E. histolytica trophozoites; assay type: cell-based, Entamoeba histolytica; conditions: for EC50: 48 h
Experimental: as §1, §2

[3] = tested on: E. histolytica, G. lamblia, and N. fowleri trophozoites; assay: Antiparasitic activity, statements for all three pathogens together (CellTiter-Glo); assay type: cell-based; conditions: for antiparasitic activity against the three pathogens (in words): E. histolytica, N. fowleri trophozoites
Experimental: as §1, §2

[4] = tested on: G. lamblia WB trophozoites; assay: Parasite assay, CellTiter-Glo EC50 dose response, G. lamblia trophozoites; assay type: cell-based, Giardia lamblia; conditions: for loss of activity compared to 3, G. lamblia: SAR comparison with compound 3
Experimental: as §1, §2

HUVEC-TERT2 cell line = assay: HUVEC cell cytotoxicity (CellTiter-Glo, 48 h); assay type: cell-based, human; conditions: for fold less toxic to human cells compared to N. fowleri: HUVEC EC50 versus N. fowleri EC50, P<0.0001; for EC50: Homo sapiens, HUVEC, 48 h, CellTiter-Glo, read-out: EC50 inhibition of HUVEC cell viability
Experimental: The HUVEC-TERT2 cell line was purchased from Evercyte GmbH (Vienna, Austria) and cultured and maintained in endothelial cell basal medium (Lonza) as described previously. Briefly, cells were seeded into a white 384-well solid bottom plate (Nunc, ThermoFisher) at a density of 1000 cells/well in 39 μL of media using a Janus liquid handler (PerkinElmer). Serial dilutions using 1 μL of compound 1 and 2 at varying concentrations were dispensed into each well in triplicate. After 48 h incubation, 40 μL of CellTiter-Glo reagent (Promega) was added into each well. The contents were mixed for 2 min on a microplate shaker to induce cell lysis and further incubated at room temperature for 10 min to stabilize the luminescent signal. Luminescence was measured with an EnVision plate reader (PerkinElmer) and %inhibition calculations were performed using the following formula for single-point normalization: %Inhibition = (1-Raw Sample Value/Mean of DMSO Signal Reference Value) × 100. Dose response curves including EC50 calculations were processed using GraphPad Prism software.

[5] = tested on: N. fowleri cysteine protease; assay: Cysteine protease activity assay in N. fowleri crude lysate (Z-Phe-Arg-AMC); assay type: biochemical, Naegleria fowleri; conditions: at 1.875 μM, total crude lysate of N. fowleri
Experimental: To prepare the cell lysate, N. fowleri trophozoites were removed from the culture flask surface by incubating in an ice bath for 10 min, centrifuged at 300 g for 10 min, and washed twice with PBS (pH 7.2). The cells were disrupted by four cycles of freeze thawing in PBS [51]. Protein concentration was quantified by the method of Bradford (Bio-Rad). The activity of the cysteine protease present in the crude extract after incubating in presence and absence of different concentrations of compounds 1 and 2 was assayed by the liberation of the fluorescent leaving group, 7-amino-4-methyl coumarin (AMC), from the peptide substrate Z–Phe–Arg–AMC (40 μM) (where Z is benzyloxycarbonyl, R&D Systems). The assay was performed at 25°C in an automated microtiter plate spectrofluorometer (EnVision, PerkinElmer) with excitation wavelength at 355 nm and emission wavelength at 460 nm. Enzyme samples were added to the reactivation buffer (10 mM Tris, 5 mM EDTA, 50 mM NaCl, pH 7.4, 10 mM DTT), and preincubated for 20 min at 37°C prior to the hydrolysis of substrate. The rate of substrate hydrolysis at ambient temperature was determined from the rate of increase of fluorescence, monitored on a continuously recording spectrofluorometer and measured as RFU/min/μg protein.

[6] = Naegleria fowleri, 48 h, read-out: N. fowleri EC50
[7] = Entamoeba histolytica, read-out: E. histolytica EC50
[8] = Giardia duodenalis, 48 h, read-out: G. lamblia EC50
[9] = trophozoites, 48 h, minimum n = 3
[10] = trophozoites, 48 h, minimum n = 3, read-out: N. fowleri EC50
[11] = Naegleria fowleri, 48 h, trophozoites, 48 h, minimum n = 3, read-out: N. fowleri EC50
[12] = Naegleria fowleri, 48 h, trophozoites, 48 h, minimum n = 3, read-out: N. fowleri pEC50 ± SE (converted)
[13] = Entamoeba histolytica, trophozoites, minimum n = 3, read-out: E. histolytica EC50
[14] = Entamoeba histolytica, trophozoites, minimum n = 3, read-out: E. histolytica pEC50 ± SE (converted)
[15] = Giardia duodenalis, trophozoites, 48 h, minimum n = 3, read-out: G. lamblia EC50
[16] = Giardia duodenalis, trophozoites, 48 h, minimum n = 3, read-out: G. lamblia pEC50 ± SE (converted)

For `C[C@@H]1[C@H](C)[C@H](c2ccc(O)cc2)O[C@H]1c1ccc(O)c(O)c1` [Compound 8, (7R, 7’R)-7, 7’-bis(4’, 3,4-trihydroxyphenyl)-(8R, 8’S)-8, 8’-dimethyltetrahydrofuran], the EC50 [1, 6] was > 166 µM, the EC50 [2, 7] was > 166 µM and the “antiparasitic activity against the three pathogens (in words)” value (“antiparasitic activity” for short) [3] was “no antiparasitic activity”. For the same compound, the EC50 [4, 8] was > 166 µM.
“3-Methoxy-6, 7, 4’-trihydroxyflavonol [Compound 9]” was tested, and the “N. fowleri pEC50 ± SE” value [1, 9] was 3.6 ± 0.02, the EC50 [1, 10] was 235 µM and the EC50 ([2]; trophozoites, minimum n = 3, read-out: E. histolytica EC50) was > 166 µM. The “G. lamblia pEC50 ± SE” value [4, 9] was 3.8 ± 0.02 and the EC50 ([4]; trophozoites, 48 h, minimum n = 3, read-out: G. lamblia EC50) was 153 µM.
`COc1cc(C[C@@H](C)[C@@H](C)Cc2ccc(O)c(O)c2)ccc1O` [Compound 2, 3’-O-methylnordihydroguairetic acid] was tested, and the EC50 [1, 11] was 38 µM, the EC50 [1, 12] was 39.8 µM and the EC50 [2, 13] was 171 µM. The EC50 [2, 14] was 158 µM, the “fold less toxic to human cells compared to N. fowleri” value (HUVEC-TERT2 cell line) was 1.6 fold and the EC50 (HUVEC-TERT2 cell line) was 59 µM. For the same compound, the EC50 [4, 15] was 38 µM, the EC50 [4, 16] was 39.8 µM and the “inhibition of cysteine protease activity” value [5] was ~50%.
In the case of `C[C@H]1[C@H](c2ccc(O)c(O)c2)c2cc(O)c(O)cc2C[C@H]1C` [Compound 6, 6,3'-Di-O-demethylisoguaiacin], the EC50 [1, 11] is reported as 150 µM, the EC50 [1, 12] is reported as 158 µM and the EC50 [2, 13] is reported as 146 µM. For the same compound, the EC50 [2, 14] was 158 µM, the “antiparasitic activity” value [3] was “comparatively weak activity” and the EC50 [4, 15] was 96 µM. The EC50 [4, 16] was 100 µM.
In the case of `COc1cc2c(cc1O)C[C@@H](C)[C@@H](C)[C@@H]2c1ccc(O)cc1` [Compound 5, 3’-Demethoxyisoguaiacin], the EC50 [1, 11] is reported as 155 µM, the EC50 [1, 12] is reported as 158 µM and the “loss of activity compared to 3, N. fowleri” value ([1]; SAR comparison with compound 3) is reported as ~ 2 fold. The EC50 [2, 13] was 236 µM, the EC50 [2, 14] was 251 µM and the “loss of activity compared to 3, E. histolytica” value ([2]; SAR comparison with compound 3) was ~ 3 fold. The “antiparasitic activity” value [3] was “comparatively weak activity”, the EC50 [4, 15] was 188 µM and the EC50 [4, 16] was 200 µM. The “loss of activity compared to 3, G. lamblia” value [4] was 4 fold.
With `COc1cc([C@@H]2c3cc(O)c(O)cc3C[C@@H](C)[C@H]2C)ccc1O` [Compound 4, Nor-isoguaicin] the EC50 [1, 11] was 75 µM, the EC50 [1, 12] was 79.4 µM and the EC50 [2, 13] was 83 µM. For the same compound, the EC50 [2, 14] was 79.4 µM, the EC50 ([3]; span over E. histolytica, N. fowleri, read-out: EC50 values against all three pathogens) was 74 to 83 µM and the EC50 [4, 15] was 74 µM. For the same compound, the EC50 [4, 16] was 79.4 µM and the “loss of activity compared to 3, G. lamblia” value [4] was ~ 2 fold.
For `C[C@@H]1[C@@H](C)[C@H](c2ccc(O)c(O)c2)O[C@H]1c1ccc(O)cc1` [Compound 7, 3-hydroxy-4-epi-larreatricin], the EC50 [1, 6] was > 166 µM, the EC50 [2, 7] was > 166 µM and the “antiparasitic activity” value [3] was “no antiparasitic activity”. For the same compound, the EC50 [4, 8] was > 166 µM.
`C[C@H](Cc1ccc(O)c(O)c1)[C@@H](C)Cc1ccc(O)c(O)c1` [Compound 1, nordihydroguairetic acid] showed an EC50 [1, 11] of 36 µM, an EC50 [1, 12] of 39.8 µM and an EC50 [1, 10] of 37 µM. The EC50 [2, 13] was 103 µM, the EC50 [2, 14] was 100 µM and the “fold less toxic to human cells compared to N. fowleri” value (HUVEC-TERT2 cell line) was 2.4 fold. The EC50 (HUVEC-TERT2 cell line) was 86 µM, the EC50 [4, 15] was 36 µM and the EC50 [4, 16] was 39.8 µM. For the same compound, the “inhibition of cysteine protease activity” value [5] was ~50%.
Compound `Cc1ncc([N+](=O)[O-])n1CCO` [Metronidazole, reference compound] has an EC50 [2, 13] of 5 µM, an EC50 [2, 14] of 5.01 µM and an EC50 [4, 15] of 6.4 µM. The EC50 [4, 16] was 6.31 µM.
Work on `CCCCCCCCCCCCCCCCOP(=O)([O-])OCC[N+](C)(C)C` [Miltefosine, reference compound] yielded an EC50 [1, 11] of 54.5 µM and an EC50 [1, 12] of 50.1 µM.
`C[C@H]1[C@H](c2ccc(O)cc2)c2cc(O)c(O)cc2C[C@H]1C` [Compound 3, Nor-3’-demethoxyisoguaiacin] was tested, and the EC50 [1, 11] was 73 µM, the EC50 [1, 12] was 79.4 µM and the EC50 [2, 13] was 94 µM. It also gave an EC50 [2, 14] of 100 µM, an EC50 [4, 15] of 49 µM and an EC50 [4, 16] of 50.1 µM.

Reference: publication PMC5565192, “Larrea tridentata: A novel source for anti-parasitic agents active against Entamoeba histolytica, Giardia lamblia and Naegleria fowleri” (PLoS Neglected Tropical Diseases, 2017)
